# Reference: US20240246918A1, “COMPOUNDS AND COMPOSITIONS AS EIF4E INHIBITORS AND THE USES THEREOF” (Ribometrix, Inc., priority 2022, published 2024)
# Read-outs that look alike come from different tables or passages of the source.
# What was measured:
# [1] = biological target: T1, human eIF4E protein (Homo sapiens, UniProt P06730); assay: Biochemical competitive binding assay (TR-FRET competition, EDA-m7GDP-ATTO-647N probe); details: read-out: hEIF4E TR-FRET IC50
# T1 construct: purchased Novus NBP-45314
# How it was run: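 IC50 values come from 4-parameter fits of the normalized 665/620 nm TR-FRET ratio. Compound was first incubated 15 min with 4 nM recombinant His-eIF4E bound to 2.5 nM Eu-anti-His antibody, then 15 min with 5 nM m7GDP-ATTO-647N tracer, in pH 7.5 HEPES buffer with 100 mM KCl, Tween-20 and BSA.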
# [2] = tested on: cap-dependent translation in Flp-In-293 reporter cells; assay: Cellular cap-dependent translation inhibition assay (dual luciferase assay, DLA; Fluc/Rluc ratio, 24 hours); assay type: cell-based; details: dual luciferase assay, Flp-In-293 reporter cells, 24 hours, Fluc/Rluc ratio, read-out: DLA 205 IC50
# [3] = tested on: COLO 205 colorectal tumor cells; assay: Tumor cell viability inhibition assay (CellTiter-Glo 2.0, 72 hours); assay type: cell-based; details: COLO 205 cell viability
# How it was run: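 IC50 derived by 4-parameter fitting after normalizing luminescence to DMSO and max-inhibition wells. Compounds tested as 11 concentrations in 4-fold steps on COLO 205 cells seeded at 1500 per well in RPMI-1640/10% FBS; ATP content measured with CellTiter-Glo 2.0 after 72 h.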
# T1 sequence (P06730 whole entry): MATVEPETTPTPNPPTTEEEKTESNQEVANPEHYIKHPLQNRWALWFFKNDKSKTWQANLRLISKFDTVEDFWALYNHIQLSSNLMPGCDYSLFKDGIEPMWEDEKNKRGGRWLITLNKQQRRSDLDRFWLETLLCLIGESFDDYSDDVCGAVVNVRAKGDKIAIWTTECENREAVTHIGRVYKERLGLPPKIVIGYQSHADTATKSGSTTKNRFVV
Compound,IC50 [1],"IC50 ([2]; Homo sapiens, Flp-In-293, 24 h)","IC50 ([3]; Homo sapiens, COLO 205, 72 h)",IC50 [2],IC50 [3]
"Cc1cc(-c2cc(Cl)ccc2OCCn2c(C)nc3c(c2=O)C[C@H](N2CC[C@H](F)C2)CC3)c2scc(C(=O)O)c2n1 (single isomer, unassigned) [Compound 311]",< 0.1 µM,< 1 µM,< 5 µM,–,–
Cc1cc(-c2cc(Cl)ccc2OCCn2c(C)nc3c(c2=O)CC(N(C)CC(F)(F)F)CC3)c2scc(C(=O)O)c2n1 (stereo not drawn) [Compound 54],< 0.1 µM,1 to 5 µM,5 to 20 µM,–,–
Cc1cc(-c2cc(Cl)ccc2OCCn2c(C)nc3c(c2=O)CC(N2CC4(CN(C)C4)C2)CC3)c2scc(C(=O)O)c2n1 (stereo not drawn) [Compound 35],< 0.1 µM,> 5 µM,> 20 µM,–,–
"Cc1cc(-c2cc(Cl)ccc2OCCn2c(C)nc3c(c2=O)CC(N2CC(F)(F)C2)CC3)c2sccc2n1 (single isomer, unassigned) [Compound 341]",0.5 to 5 µM,–,–,> 5 µM,> 20 µM
"Cc1nc2c(c(=O)n1CC#Cc1ccc(Cl)cc1-c1ccnc3c(C(=O)O)csc13)CC(N(C)C)CC2 (single isomer, unassigned) [Compound 296]",0.5 to 5 µM,> 5 µM,> 20 µM,–,–
"Cc1cc(-c2cc(Cl)ccc2OCCn2c(C)nc3c(c2=O)CC(N2CC(F)C2)CC3)c2scc(C(=O)NS(C)(=O)=O)c2n1 (single isomer, unassigned) [Compound 342]",< 0.1 µM,< 1 µM,< 5 µM,–,–
Cc1cc(-c2cc(Cl)ccc2OCCn2c(C)nc3c(c2=O)CC(N(C)C2CCC2)CC3)c2scc(C(=O)O)c2n1 (stereo not drawn) [Compound 91],< 0.1 µM,< 1 µM,< 5 µM,–,–
Cc1cc(-c2cc(Cl)ccc2OCCn2c(C)nc3c(c2=O)CC(N(C)C2CCCC2)CC3)c2scc(C(=O)O)c2n1 (stereo not drawn) [Compound 80],< 0.1 µM,< 1 µM,< 5 µM,–,–
"Cc1cc(-c2cc(Cl)ccc2OCCn2c(C)nc3c(c2=O)CC(N(CC(F)(F)F)C2CC2)CC3)c2scc(C(=O)NS(C)(=O)=O)c2n1 (single isomer, unassigned) [Compound 309]",0.1 to 0.5 µM,–,–,1 to 5 µM,5 to 20 µM
Cc1cc(-c2cc(Cl)ccc2OCCn2c(C)nc3c(c2=O)CC(N(C)C2CC2)CC3)c2c(n1)c(C(=O)NS(C)(=O)=O)cn2C (stereo not drawn) [Compound 272],0.5 to 5 µM,> 5 µM,> 20 µM,–,–
Cc1nc2c(c(=O)n1CC#Cc1ccc(Cl)cc1-c1ccnc3c(C(=O)O)csc13)CC(N(C)C1CC1)CC2 (stereo not drawn) [Compound 290],< 0.1 µM,< 1 µM,< 5 µM,–,–
Cc1cc(-c2cc(Cl)ccc2OCCn2c(C)nc3c(c2=O)CC(N(C)C2(c4ccc(F)cc4)CC2)CC3)c2scc(C(=O)NS(C)(=O)=O)c2n1 (stereo not drawn) [Compound 274],0.1 to 0.5 µM,1 to 5 µM,5 to 20 µM,–,–
Cc1cc(-c2cc(Cl)ccc2OCCn2c(C)nc3c(c2=O)CC(N2CC4COCC4C2)CC3)c2scc(C(=O)O)c2n1 (stereo not drawn) [Compound 19],< 0.1 µM,< 1 µM,< 5 µM,–,–
"Cc1cc(-c2cc(Cl)ccc2OCCn2c(C)nc3c(c2=O)CC(N(C)CC2CC(F)(F)C2)CC3)c2scc(C(=O)O)c2n1 (single isomer, unassigned) [Compound 259]",< 0.1 µM,< 1 µM,–,–,< 5 µM
"Cc1nc2c(c(=O)n1CC#Cc1ccc(Cl)cc1-c1ccnc3c(C(=O)O)csc13)CC(N1CCCCC1)CC2 (single isomer, unassigned) [Compound 298]",< 0.1 µM,< 1 µM,< 5 µM,–,–
Cc1cc(-c2cc(Cl)ccc2OCCn2c(C)nc3c(c2=O)CC(N(C)CC2CC(F)(F)C2)CC3)c2scc(C(=O)O)c2n1 (stereo not drawn) [Compound 96],< 0.1 µM,< 1 µM,< 5 µM,–,–
"Cc1cc(-c2cc(Cl)ccc2OCCn2c(C)nc3c(c2=O)CC(N2CC4COCC4C2)CC3)c2scc(C(=O)NS(C)(=O)=O)c2n1 (single isomer, unassigned) [Compound 89]",< 0.1 µM,–,–,< 1 µM,< 5 µM
"Cc1nc2c(c(=O)n1CC#Cc1ccc(Cl)cc1-c1ccnc3c(C(=O)NS(C)(=O)=O)csc13)CC(N(C)C1CC(F)(F)C1)CC2 (single isomer, unassigned) [Compound 334]",< 0.1 µM,–,–,< 1 µM,< 5 µM
Cc1cc(-c2cc(Cl)ccc2OCCn2c(C)nc3c(c2=O)CC(N(C)C(=O)C2CCN(CC(F)(F)F)CC2)CC3)c2scc(C(=O)O)c2n1 (stereo not drawn) [Compound 71],< 0.1 µM,> 5 µM,> 20 µM,–,–

Compound,IC50 [1],"IC50 ([2]; Homo sapiens, Flp-In-293, 24 h)","IC50 ([3]; Homo sapiens, COLO 205, 72 h)",IC50 [2],IC50 [3]
"Cc1nc2c(c(=O)n1CCOc1ccc(Cl)cc1-c1ccnn3c(C(=O)O)ccc13)CC(N(C)C)CC2 (stereo not drawn) [Compound 30, 4-[5-chloranyl-2-[2-[6-[di(methyl)amino]-2-methyl-4-oxidanylidene-5,6,7,8-tetrahydroquinazolin-3-yl]ethoxy]phenyl]pyrrolo[1,2-b]pyridazine-7-carboxylic acid]",< 0.1 µM,1 to 5 µM,> 20 µM,–,–
"CO[C@H]1CCN([C@@H]2CCc3nc(C)n(CCOc4ccc(Cl)cc4-c4cc(C)nc5c(C(=O)O)csc45)c(=O)c3C2)C1 (single isomer, unassigned) [Compound 48]",< 0.1 µM,< 1 µM,< 5 µM,–,–
"Cc1cc(-c2cc(Cl)ccc2OCCn2c(C)nc3c(c2=O)CC(N(C)C2CNC2)CC3)c2scc(C(=O)O)c2n1 (stereo not drawn) [Compound 66, 7-[2-[2-[6-[azetidin-3-yl(methyl)amino]-2-methyl-4-oxidanylidene-5,6,7,8-tetrahydroquinazolin-3-yl]ethoxy]-5-chloranyl-phenyl]-5-methyl-thieno[3,2-b]pyridine-3-carboxylic acid; 2,2,2-tris(fluorenyl)acetic acid]",< 0.1 µM,> 5 µM,> 20 µM,–,–
"Cc1nc2c(c(=O)n1CCOc1ccc(Cl)cc1-c1cccc(C(=O)O)c1)CC(N(C)C)CC2 (single isomer, unassigned) [Compound 24]",< 0.1 µM,< 1 µM,–,–,5 to 20 µM
"Cc1cc(-c2cc(Cl)ccc2OCCn2c(C)nc3c(c2=O)CC(N(C)C2CC2)CC3)c2scc(C(=O)NS(=O)(=O)c3ccccn3)c2n1 (single isomer, unassigned) [Compound 287]",< 0.1 µM,–,–,1 to 5 µM,5 to 20 µM
Cc1cc(-c2cc(Cl)ccc2OCCn2c(C)nc3c(c2=O)CC(N(C)S(C)(=O)=O)CC3)c2scc(C(=O)O)c2n1 (stereo not drawn) [Compound 37],< 0.1 µM,> 5 µM,5 to 20 µM,–,–
Cc1cc(-c2cc(Cl)ccc2OCCn2c(C)nc3c(c2=O)CC(N(C)Cc2ccncc2F)CC3)c2scc(C(=O)O)c2n1 (stereo not drawn) [Compound 57],< 0.1 µM,< 1 µM,< 5 µM,–,–
"Cc1cc(-c2cc(Cl)ccc2OCCn2c(C)nc3c(c2=O)CC(N(C)C2CC2)CC3)c2scc(C(=O)NS(=O)(=O)c3ccccn3)c2n1 (single isomer, unassigned) [Compound 286]",< 0.1 µM,< 1 µM,< 5 µM,–,–
"Cc1cc(-c2cc(Cl)ccc2OCCn2c(C)nc3c(c2=O)C[C@@H](N2CC[C@@H](F)C2)CC3)c2scc(C(=O)O)c2n1 (single isomer, unassigned) [Compound 329]",< 0.1 µM,< 1 µM,< 5 µM,–,–
Cc1cc(-c2cc(Cl)ccc2OCCn2c(C)nc3c(c2=O)CC(N2CC(C)(N(C)C)C2)CC3)c2scc(C(=O)O)c2n1 (stereo not drawn) [Compound 23],< 0.1 µM,> 5 µM,> 20 µM,–,–
"Cc1nc2c(c(=O)n1CC#Cc1ccc(Cl)cc1-c1ccnc3c(C(=O)NS(C)(=O)=O)csc13)CC(N1CCCCC1)CC2 (single isomer, unassigned) [Compound 315]",< 0.1 µM,< 1 µM,< 5 µM,–,–
Cc1cc(-c2cc(Cl)ccc2OCCn2c(C)nc3c(c2=O)CC(N(C)C(=O)C2CN(C)C2)CC3)c2scc(C(=O)O)c2n1 (stereo not drawn) [Compound 73],< 0.1 µM,> 5 µM,> 20 µM,–,–
Cc1cc(-c2cc(Cl)ccc2OCCn2c(C)nc3c(c2=O)CC(N2CC4(CCN(C)C4)C2)CC3)c2scc(C(=O)O)c2n1 (stereo not drawn) [Compound 21],< 0.1 µM,> 5 µM,> 20 µM,–,–
"Cc1cc(-c2cc(Cl)ccc2OCCn2c(C)nc3c(c2=O)CC(N2CCC[C@H](F)C2)CC3)c2scc(C(=O)NS(C)(=O)=O)c2n1 (single isomer, unassigned) [Compound 264]",< 0.1 µM,< 1 µM,< 5 µM,–,–
Cc1cc(-c2cc(Cl)ccc2OCCn2c(C)nc3c(c2=O)CC(N2CCCC(F)(F)C2)CC3)c2scc(C(=O)O)c2n1 (stereo not drawn) [Compound 50],< 0.1 µM,< 1 µM,< 5 µM,–,–
Cc1cc(-c2cc(Cl)ccc2OCCn2c(C)nc3c(c2=O)CC(N(C)C(=O)C2CCN(C)CC2)CC3)c2scc(C(=O)NS(C)(=O)=O)c2n1 (stereo not drawn) [Compound 84],< 0.1 µM,> 5 µM,> 20 µM,–,–
"Cc1cc(-c2cc(Cl)ccc2OCCn2c(C)nc3c(c2=O)CC(N(C2CC2)C2CC2)CC3)c2scc(C(=O)NS(C)(=O)=O)c2n1 (single isomer, unassigned) [Compound 292]",< 0.1 µM,–,–,1 to 5 µM,5 to 20 µM
COC(=O)c1csc2c(-c3cc(Cl)ccc3OCCn3c(C)nc4c(c3=O)CC(N(C)C3CC3)CC4)cc(C)nc12 (stereo not drawn) [Compound 358],0.5 to 5 µM,1 to 5 µM,5 to 20 µM,–,–
